#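 Protocol summary: plate cells (96-well), add compound at 5 concentrations, incubate 48 h, interpolate endpoints linearly. Abbreviation: GI50, concentration required for 50% inhibition of growth. At the TGI there is no net growth.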
# Experiments:
# Test in all cases: NCI tumour cell line growth inhibition, 48 h
# 786-0 renal = system: 786-0 renal
# A498 renal = system: A498 renal
# A549 NSCLC = system: A549 NSCLC
# ACHN renal = system: ACHN renal
# BT-549 breast = system: BT-549 breast
# CAKI-1 renal = system: CAKI-1 renal
# CCRF-CEM leukemia = system: CCRF-CEM leukemia
# COLO 205 colon = system: COLO 205 colon
# DU-145 prostate = system: DU-145 prostate
# EKVX NSCLC = system: EKVX NSCLC
# HCC-2998 colon = system: HCC-2998 colon
# HCT-116 colon = system: HCT-116 colon
# HCT-15 colon = system: HCT-15 colon
# HL-60(TB) leukemia = system: HL-60(TB) leukemia
# HOP-62 NSCLC = system: HOP-62 NSCLC
# HOP-92 NSCLC = system: HOP-92 NSCLC
# HS 578T breast = system: HS 578T breast
# HT29 colon = system: HT29 colon
# IGROV1 ovarian = system: IGROV1 ovarian
# K-562 leukemia = system: K-562 leukemia
# KM12 colon = system: KM12 colon
# LOX IMVI melanoma = system: LOX IMVI melanoma
# M14 melanoma = system: M14 melanoma
# MALME-3M melanoma = system: MALME-3M melanoma
# MCF7 breast = system: MCF7 breast
# MDA-MB-231 breast = system: MDA-MB-231 breast
# MDA-MB-435 = system: MDA-MB-435
# MDA-MB-468 breast = system: MDA-MB-468 breast
# MOLT-4 leukemia = system: MOLT-4 leukemia
# NCI-H226 lung = system: NCI-H226 lung
smiles,measurement,setting,value
COc1cc(Cn2c(C(F)(F)F)cc3c(Cl)ncnc32)ccn1,GI50,786-0 renal,10.6 µM
same,TGI,786-0 renal,25.9 µM
same,GI50,A498 renal,16 µM
same,TGI,A498 renal,30.8 µM
same,GI50,A549 NSCLC,16.4 µM
same,TGI,A549 NSCLC,38.4 µM
same,GI50,ACHN renal,14.4 µM
same,TGI,ACHN renal,28.8 µM
same,GI50,BT-549 breast,1.63 µM
same,TGI,BT-549 breast,3.16 µM
same,GI50,CAKI-1 renal,7.32 µM
same,TGI,CAKI-1 renal,20.6 µM
same,GI50,CCRF-CEM leukemia,3.14 µM
same,TGI,CCRF-CEM leukemia,18.6 µM
same,GI50,COLO 205 colon,15.3 µM
same,TGI,COLO 205 colon,46.3 µM
same,GI50,DU-145 prostate,1.76 µM
same,TGI,DU-145 prostate,3.22 µM
same,GI50,EKVX NSCLC,7.95 µM
same,TGI,EKVX NSCLC,23.9 µM
same,GI50,HCC-2998 colon,1.78 µM
same,TGI,HCC-2998 colon,3.27 µM
same,GI50,HCT-116 colon,1.74 µM
same,TGI,HCT-116 colon,4.3 µM
same,GI50,HCT-15 colon,3.09 µM
same,GI50,HL-60(TB) leukemia,2.14 µM
same,TGI,HL-60(TB) leukemia,7.28 µM
same,GI50,HOP-62 NSCLC,14.3 µM
same,TGI,HOP-62 NSCLC,29.7 µM
same,GI50,HOP-92 NSCLC,10.7 µM
same,TGI,HOP-92 NSCLC,30.3 µM
same,GI50,HS 578T breast,3.13 µM
same,TGI,HS 578T breast,16.6 µM
same,GI50,HT29 colon,14.1 µM
same,TGI,HT29 colon,41.3 µM
same,GI50,IGROV1 ovarian,1.78 µM
same,TGI,IGROV1 ovarian,3.62 µM
same,GI50,K-562 leukemia,2.36 µM
same,TGI,K-562 leukemia,> 100 µM
same,GI50,KM12 colon,13.5 µM
same,TGI,KM12 colon,30.5 µM
same,GI50,LOX IMVI melanoma,1.67 µM
same,TGI,LOX IMVI melanoma,3.17 µM
same,GI50,M14 melanoma,1.52 µM
same,TGI,M14 melanoma,4.16 µM
same,GI50,MALME-3M melanoma,12.6 µM
same,TGI,MALME-3M melanoma,25.5 µM
same,GI50,MCF7 breast,5.12 µM
same,TGI,MCF7 breast,19.8 µM
same,GI50,MDA-MB-231 breast,3.33 µM
same,TGI,MDA-MB-231 breast,12.6 µM
same,GI50,MDA-MB-435,3.26 µM
same,TGI,MDA-MB-435,14.6 µM
same,GI50,MDA-MB-468 breast,1.78 µM
same,TGI,MDA-MB-468 breast,3.77 µM
same,GI50,MOLT-4 leukemia,3.3 µM
same,TGI,MOLT-4 leukemia,> 100 µM
same,GI50,NCI-H226 lung,15.5 µM
